Like-named read-outs stand apart in the source and are kept apart here.
Columns and labels:
[1] = tested on: human osteoclasts; experiment: Cell viability assay (methylene blue); format: cell-based; conditions: different concentrations, 48 h
Procedure: […]
Cell viability assay: U2-OS, U-87 MG, or enriched monocyte cells were grown at 37 0C with 5% of CO2 in the respective medium as described previously. Cells were seeded (1500 cells/well in 96 wells plate) one day before the incubation with indicated inhibitor s at various concentrations. After 48 h, cells were fixed, and viability was measured by quantita tive colorimetric assay using methylene blue according to the procedure reported by Ben -Bassat et al.9 The data were expressed as a percentage of control; data represent the mean of 2 experiments with triplicates for each treatment (± standard deviation).
Figure S10. Cell viability assay. a) U2-OS and, b) U-87 MG were incubated with the different concentrations of indicated inhibitors. After a 48 h incubation cells were fixed, and viability was measured by methylene blue assay.The data were expressed as a percentage of control; data represent the mean of 2 experiments with triplicates for each treatment (± SD). Statistical differences were evaluated by two -tailed Student’s t -test from two independent experiments.
Student’s t -test was non-significant except for samples indicated with *, P <0.05 and **, P <0.01. (c) Human osteoclasts were incubated with the different concentrations of indicated inhibitors. After a 48 h incubation cells were fixed, and viability was measured by methylene […]
(also on this page, place not known: t-test non -significant t-test 0 20 40 60 80 100 120 (0.5 µM)(5 µM)(1 µM)(5 µM)(1 µM) (0.5 µM) ODNGD38GD38GD38GD20GD20GD20 (0.5 µM) Cell viability (% of control) Concentration of compound) […]
(1 picture or pasted object on this page, not shown here)

[2] = target: T1, endogenous matured CTSK in intact U2-OS and U-87 MG cells (Homo sapiens, UniProt P43235); experiment: Competition assay in intact cells, GB123 labeling; format: cell-based; conditions: escalating doses
T1 construct: endogenous in cells; host or cells: U2-OS and U-87 MG
T1 sequence (P43235 115-329): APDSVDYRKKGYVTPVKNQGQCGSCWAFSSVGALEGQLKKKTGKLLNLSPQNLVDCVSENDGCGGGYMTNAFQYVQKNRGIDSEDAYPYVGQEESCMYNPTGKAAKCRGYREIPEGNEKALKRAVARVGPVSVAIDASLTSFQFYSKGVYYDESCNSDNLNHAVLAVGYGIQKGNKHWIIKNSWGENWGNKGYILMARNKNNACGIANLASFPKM
Procedure: Two cell lines, human osteosarcoma U2-OS and human glioblastoma U-87 MG, that naturally express CTSK along with other lysosomal cathepsins, were chosen to evaluate the inhibitors’ potency and selectivity.[43],[44] First, the intact cells were incubated for various durations with escalating doses of the inhibitors, and the ODN was used as a control. The residual cathepsin activity in the cells was detected by adding a pan-cathepsin ABP, GB123, after which the cells were lysed. The probe-labeled enzymes were then separated and visualized using fluorescent SDS-PAGE (Figures 5a,b and S7).[45] In both cells, the activity of several cathepsins was detected, while the fluorescent band at approximately 25 kDa was correlated to CTSK by immunoblotting (shown below in Figure 5a, b). The identity of each labeled band was detected by immunoblotting (Figure S7).[45] A selective dose-dependent suppression of CTSK activity was obtained in a range of inhibitor concentrations.
Figure 5 Direct inhibition of endogenous matured CTSK in intact U2-OS and U-87 MG cells. (a) Intact U2-OS cells were treated with DMSO, ODN, or increasing concentrations of the inhibitors GD20 or GD38 in their culture medium for 2 h. Cells were then treated with GB123 (5 μM) for 2 h, lysed, and separated by SDS-PAGE, followed by fluorescent scanning of the gel using a Typhoon scanner at 635/670 nm. An immunoblot of CTSK of the same gel is presented below. Different cathepsins are marked by colored arrowheads; a red arrowhead marks mature CTSK. s. ch. = single chain, h. ch. = heavy chain.[45] (b) Intact U-87 MG cells were treated with the inhibitor, followed by GB123, as described in panel (a).
U-87 MG and U2-0S cells (5 × 10^5 cells/well) were seeded in a six-well plate 1 day before treatment. […] Proteins were quantified by bicinchoninic acid (BCA, Thermo Scientific); an equal quantity of proteins was prepared for all samples, and after the addition of sample buffer, the lysates were boiled for 10 min, centrifuged, and separated by 12.5% SDS-PAGE. […]

[3] = target: T2, Recombinant human cathepsin B (Homo sapiens, UniProt P07858); experiment: Recombinant cathepsin inhibition, gel-based competition with GB123 probe; format: biochemical; conditions: Table S2; three independent competition gel-based experiments; read-out: CTSB (IC50)
T2 construct: made in house
Procedure: (§1) In-gel fluorescence analysis was used to detect the residual activity of the cathepsins by applying pan-cathepsin probe GB123 to detect the stable enzyme–probe complex. This approach is used for testing inhibition and selectivity.[37],[41]
(§2) Recombinant human cathepsin L (0.5 μM), cathepsin B (0.5 μM), cathepsin K (0.5 μM), and cathepsin S (0.5 μM) were pretreated with different concentrations of inhibitors (GD compounds, odanacatib) for 1 h in reaction buffer (50 mM acetate, 2 mM dithiothreitol (DTT), and 5 mM MgCl2, pH 5.5) at 37 °C. GB123 (1 μM) was added and incubated with samples for 60 min at 37 °C.[37],[41] The reaction was stopped by the addition of sample buffer 4× (40% glycerol, 0.2 M Tris/HCl pH 6.8, 20% β-mercaptoethanol, 12% SDS, and 0.4 mg/mL bromophenol blue). Samples were then boiled, separated on a 12.5% SDS gel, and scanned for fluorescence by a Typhoon scanner FLA 9500 at excitation and emission wavelengths of 635 and 670 nm for GB123.
(§3) graphs were generated in GraphPad Prism software.

[4] = target: T3, Recombinant human cathepsin L (Homo sapiens, UniProt P07711); experiment: as above; format: biochemical; conditions: Table S2; three independent competition gel-based experiments; read-out: CTSL (IC50)
T3 construct: made in house
T3 sequence (P07711 114-333): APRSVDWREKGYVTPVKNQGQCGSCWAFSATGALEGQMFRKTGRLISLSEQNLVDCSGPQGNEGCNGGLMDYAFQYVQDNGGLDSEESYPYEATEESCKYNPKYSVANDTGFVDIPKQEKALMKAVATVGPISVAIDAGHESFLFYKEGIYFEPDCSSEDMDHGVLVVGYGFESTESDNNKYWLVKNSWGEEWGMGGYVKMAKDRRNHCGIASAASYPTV
Procedure: as §1, §2, §3

[5] = target: T4, Recombinant human cathepsin K (Homo sapiens, UniProt P43235); experiment: as above; format: biochemical; conditions: for concentration at which significant CTSK inhibition starts: Figure S5, recombinant CTSK
T4 construct: made in house
T4 sequence (P43235 115-329): T1 sequence (P43235 115-329)
Procedure: as §1, §2, §3

[6] = Figure 4b IC50 curves, recombinant CTSK 0.5 μM, read-out: IC50 for inhibiting CTSK activity

IC50 [3] [nM] | IC50 [4] [nM] | IC50 [5, 6] [nM] | concentration at which significant CTSK inhibition starts [5] [µM] | IC50 ([5]; Table S2, three independent competition gel-based experiments, read-out: CTSK (IC50)) [nM] | IC50 ([5]; Table S2, value in nM, read-out: CTSK (IC50)) [nM] | Structure (SMILES) | cell viability (% of control) vs control [1] | inhibition of CTSK and selectivity over other cathepsins in intact cells, in words [2]
> 10000 | > 10000 | 460 ± 77 | 0.25 |  |  | CC(C)C[C@H](N[C@@H](c1ccc(-c2ccc(S(C)(=O)=O)cc2)cc1)C(F)(F)F)C(=O)NCC(=O)COC(=O)[C@@H]1CCCN1C(=O)[C@H](CC(C)C)NC(=O)OCC1c2ccccc2-c2ccccc21 [GD20] | no significant differences | very selective at all concentrations tested
> 10000 | > 10000 | 210 ± 27 | 0.062 | 200 ± 20 |  | CC(C)C[C@H](N[C@@H](c1ccc(-c2ccc(S(C)(=O)=O)cc2)cc1)C(F)(F)F)C(=O)NCC(=O)COC(=O)[C@@H]1CCCN1C(=O)[C@H](CCC(N)=O)NC(=O)OCC1c2ccccc2-c2ccccc21 [GD38] | no significant differences | slightly reduced the activity of other cathepsins at high concentrations and longer incubation times
> 10000 | > 10000 |  |  |  | 350 ± 0.05 | CC(C)(F)C[C@H](N[C@@H](c1ccc(-c2ccc(S(C)(=O)=O)cc2)cc1)C(F)(F)F)C(=O)NC1(C#N)CC1 [ODN, odanacatib, reference compound] | no significant differences | could not detect

From article PMC11938014, “Development and Application of Small Molecule–Peptide Conjugates as Cathepsin K-Specific Covalent Irreversible Inhibitors in Human Osteoclast and Lung Cancer” (JACS Au, 2025)
